Source: patent US20080026079A1 (priority 2006, published 2008)
Several values for one entry are separate records, joined by “and”; a condition that tells them apart may be missing. Equal values may be shown once. Entries after “also recorded” stand apart in the source; their conditions may differ.

Assays:
[1] = tested on: canine intestinal inflammation; experiment: Canine inflammatory bowel disease activity index (CIBDAI) around Adriamycin dosing; assay type: in vivo, dog; parameters: key to CIBDAI C. Vomiting: 0 = none; 1 = mild (1 episode/week); 2 = moderate (2-3 episodes/week); 3 = severe (>3 episodes/week); key to CIBDAI A. Attitude/activity / CIBDAI B. Appetite / CIBDAI E. Stool frequency: 0 = normal; 1 = slightly decreased; 2 = moderately decreased; 3 = severely decreased
Procedure: (§1) The criteria used for the scoring in the table is found at the bottom of the table. Dogs in the study were given a “palliative” Adriamycin dosage (30 mg/m2, IV every 14 days). Symptoms related to intestinal inflammation are expected in fewer than 10% of treated dogs.

[2] = tested on: diarrhea following chemotherapy in dogs; details: dog, in vivo
Procedure: 32 dogs presented with diarrhea following the administration of a chemotherapy agent such as doxorubicin, cytoxan, vincristine, lomustine, and others for a minimum period of 48 hours. CASAD in 500 mg tables was given orally to the cancer-treated dogs four times a day (q.i.d.). Other pharmaceutical agents or medications, as shown below, were also administered to certain dogs according to Best Clinical Practices, using usual, customary dosing. To the extent permitted by scheduling, CASAD and the other medication were given concurrently.

[3] = tested on: pregnant Sprague-Dawley rats; experiment: Dietary clay toxicity and trace metal bioavailability in pregnant rats; details: rat, in vivo
Procedure: In animal studies with calcium montmorillonite clay, no adverse effects from clay treatment, at levels up to 2.0% (w/w) in the diet, have been reported. In recent studies in rodents, calcium montmorillonite clay were evaluated for potential toxicity and trace metal bioavailability in pregnant Sprague-Dawley rats throughout the period of gestation following high level exposure in the diet (2.0% w/w). Clays were supplemented in the balanced diet of Sprague-Dawley rats during pregnancy at a level of 2.0% (w/w). Evaluations of toxicity were performed on gestation day 16 and included maternal body weights, maternal feed intakes, litter weights, in addition to embryonic resorptions. Liver and, kidneys, tibia, brain, uterus, pooled placental, and pooled embryonic mass were collected and weighed. Tissue were lyophilized and neutron activation analysis (NAA) was then performed. Elements considered by NAA included: Al, Br, Ca, Ce, Co, Cr, Cs, Cu, Dy, Eu, Fe, Hf, K, La, Lu, Mg, Mn, Na, Nd, Ni, Rb, S, Sb, Sc, Se, Sm, Sr, Ta, Th, Te, Th, Ti, Tl, U, V, Yb, Zn, and Zr. Inductively coupled plasma-mass spectroscopy further confined that Al was below detection limits (0.5 ppm) in the brain, indicating no significant bioavailability of this metal from clay interactions in the GI tract. […]

[4] = tested on: irinotecan-induced diarrhea; details: irinotecan weekly 125 mg/m^2; strict adherence to high-dose loperamide; fell from 56; cited from earlier work
[5] = tested on: chemotherapy-induced diarrhea; details: 41 5-FU-treated patients; standard-dose loperamide; cited from earlier work
[6] = tested on: hepatic demethylation capacity; details: dog, in vivo
Procedure: A ^13C-aminopyrine demethylation blood test was performed in 16 dogs before and after undergoing chemotherapy with doxorubicin for malignant neoplasia. A baseline blood sample of 1 ml was taken, followed by intravenous injection of 2 mg/kg ^13C-aminopyrine and collection of another 1 ml blood sample at 45 minutes after ^13C-aminopyrine administration. Blood samples were immediately placed into vacutainer tubes containing 2 ml of 6M hydrochloric acid and the percent dose of the ^13C administered as ^13C-aminopyrine was determined based on fractional mass spectrometry. […] A p-value <0.05 was considered statistically significant.

[7] = tested on: canine intestinal inflammation; experiment: Canine inflammatory bowel disease activity index (CIBDAI) around Adriamycin dosing; assay type: in vivo; parameters: key: 0 = normal; 1 = slightly soft faeces or faecal blood, mucus or both; 2 = very soft faeces; 3 = watery diarrhea; details: one line per dog
Procedure: as §1

[8] = tested on: fecal α-1PI; experiment: Fecal alpha(1)-proteinase inhibitor ELISA following Adriamycin; assay type: in vivo, dog;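 on m α-1PI - pd. 1: unit µg per g of feces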;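 on m α-1PI - pd. 2: unit µg per g of feces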
Procedure: Fecal alpha(1)-proteinase inhibitor (α-1PI) clearance is a reliable, noninvasive marker for protein-losing enteropathy in animals and canines. Furthermore, the canine gut is a good model for the human gut, so results of testing on dogs can be considered relevant to humans. In this example, a number of dogs were tested. Fecal samples were collected daily for 3 days following each Adriamycin administration. An ELISA was used to measure α-1PI concentrations in fecal extracts.
Fecal samples were available for analysis following both chemotherapy treatments from 13 dogs.

[9] = tested on: dogs with malignant tumors; details: cited from earlier work
[10] = tested on: canine intestinal inflammation; experiment: Canine inflammatory bowel disease activity index (CIBDAI) around Adriamycin dosing; assay type: in vivo; parameters: key: 0 = normal; 1 = slightly decreased; 2 = moderately decreased; 3 = severely decreased; details: one line per dog
Procedure: as §1

Molecule: Cc1ncc([N+](=O)[O-])n1CCO [Flagyl, metronidazole]
- time to resolution of diarrhea ([1]; Dog 2, diarrhea started Day 21 after Adria 2): with Flagyl, resolved in 2 days

Molecule: calcium aluminosilicate [CASAD]
- 1 = interaction 0 = noninteraction [2]: 0
- dogs with interaction [2]: 0
- negative interactions (anorexia, vomiting, nausea, lethargy, anaphylaxis) with additional drugs [2]: No negative interactions

Molecule: calcium montmorillonite clay
- Al in the brain (ICP-MS) [3]: < 0.5 ppm
- brain Rb [3]: decreased brain Rb

Molecule: CN(C)C(=O)C(CCN1CCC(O)(c2ccc(Cl)cc2)CC1)(c1ccccc1)c1ccccc1 [loperamide]
- prevalence of grade ¾ diarrhea [4]: 9%
- resolution of diarrhea by day three [5]: 15%

Molecule: COc1cccc2c1C(=O)c1c(O)c3c(c(O)c1C2=O)C[C@@](O)(C(=O)CO)C[C@@H]3O[C@H]1C[C@H](N)[C@H](O)[C@H](C)O1 [doxorubicin]
- mean ±SD clearance at 45 minutes after 13C-aminopyrine administration [6]: 0.09562±0.0074
- CIBDAI D. Stool consistency ([7]; Post Adria 1): D.3 and D.1 and D.2
- CIBDAI D. Stool consistency ([7]; Post Adria 2): D.2 and D.3
- CIBDAI D. Stool consistency ([7]; Pre Adria 2): D.1
- fecal α-1PI concentrations, comparison of the two treatments ([8]; 13 dogs): not significantly different
- m α-1PI - pd. 1 ([8]; one line per dog, fecal samples 3 days following first Adriamycin administration): 0 micro g/g of feces (5×) and 9.38 micro g/g of feces and 1.38 micro g/g of feces and 2.83 micro g/g of feces and 0.7 micro g/g of feces and 4.2 micro g/g of feces and 6.85 micro g/g of feces and 0.47 micro g/g of feces and 13.23 micro g/g of feces
- m α-1PI - pd. 2 ([8]; one line per dog, fecal samples 3 days following second Adriamycin administration): 21.29 micro g/g of feces and 0 micro g/g of feces (3×) and 3.76 micro g/g of feces and 1.34 micro g/g of feces and 1.7 micro g/g of feces and 0.85 micro g/g of feces and 0.53 micro g/g of feces and 14.26 micro g/g of feces and 4.57 micro g/g of feces and 1.83 micro g/g of feces and 1.3 micro g/g of feces
- CIBDAI A. Attitude/activity ([1]; Post Adria 1, 30 mg/m2 IV every 14 days, one line per dog): A.0 (11×) and A.1 (2×)
- CIBDAI B. Appetite ([1]; Post Adria 1, one line per dog): B.0 (11×) and B.2 (2×)
- CIBDAI C. Vomiting ([1]; Post Adria 1, one line per dog): C.1 (1 = mild (1 episode/week)) (2×) and C.0 (9×) and C.2 (2 = moderate (2-3 episodes/week)) (2×)
- CIBDAI E. Stool frequency ([1]; Post Adria 1, one line per dog): E.0 (11×) and E.2 (2 = moderately increased (4-5 times/day)) and E.1 (1 = slightly increased (2-3 times/day))
- CIBDAI A. Attitude/activity ([1]; Post Adria 2, one line per dog): A.0 (10×) and A.3 and A.2 and A.1
- CIBDAI B. Appetite ([1]; Post Adria 2, one line per dog): B.0 (9×) and B.2 (2×) and B.3 and B.1
- CIBDAI C. Vomiting ([1]; Post Adria 2, one line per dog): C.0 (11×) and C.1 (1 = mild (1 episode/week)) (2×)
- CIBDAI E. Stool frequency ([1]; Post Adria 2, one line per dog): E.2 (2 = moderately increased (4-5 times/day)) (2×) and E.0 (11×)
- CIBDAI A. Attitude/activity ([1]; Pre Adria 2, one line per dog): A.0
- CIBDAI B. Appetite ([1]; Pre Adria 2, one line per dog): B.0 (12×) and B.1
- CIBDAI C. Vomiting ([1]; Pre Adria 2, one line per dog): C.0
- CIBDAI E. Stool frequency ([1]; Pre Adria 2, one line per dog): E.0
- CIBDAI F. Weight loss ([1]; Pre Adria 2, one line per dog): F.0
- observations noted per dog after Adriamycin ([1]; notes under the dog's scores, listed as Adria): Day 21 - Lethargic for 1 week after; also recorded: Day 21 - Owner reported dumpty for 3 days post Adria #2; also recorded: Day 21 - Diarrhea started, treated; also recorded: Patient was euthanized 5 days after initial; also recorded: Day 7 - Diarrhea,; also recorded: Day 21 - Diarrhea for 3 days,; also recorded: Adria #2 delayed due to vomiting, diarrhea,
- dogs that died as a direct result of doxorubicin-induced toxicosis ([9]; 185 dogs, 30 mg/m^2 iv once or twice at 21-day interval): 7 dogs
- likelihood of toxicosis after second dose in dogs with signs after first dose ([9]; dog, in vivo): 17.2 times
- CIBDAI D. Stool consistency ([10]; Post Adria 1): D.0
- CIBDAI D. Stool consistency ([10]; Post Adria 2): D.0
- CIBDAI D. Stool consistency ([10]; Pre Adria 2): D.0

Molecule: C[C@@H](O)[C@@H]1NC(=O)[C@H](CCCCN)NC(=O)[C@@H](Cc2c[nH]c3ccccc23)NC(=O)[C@H](Cc2ccccc2)NC(=O)[C@@H](NC(=O)[C@H](N)Cc2ccccc2)CSSC[C@@H](C(=O)N[C@H](CO)[C@@H](C)O)NC1=O [octreotide]
- resolution of diarrhea by day three [5]: 90%
